Experimental data reported in PubChem BioAssay AID330 (DTP/NCI, 2004).
“And” between values parts separate entries of the source, which are not always exact repeats. Equal entries are not always repeated. Toxic doses and inconclusive results are not listed. Rule for the calls: active = survival T/C of 150% or more; inactive = T/C below 125% in these data.

System: P388 leukemia ip, CD2F1 mice, survival T/C
Experiment: NCI In Vivo Anticancer Drug Screen. Data for tumor model P388 Leukemia (intraperitoneal) in CD2F1 (CDF1) mice
Conditions: endpoint: median survival time, higher = longer survival
How it was run: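 Mice carrying the transplanted tumor received test compound or vehicle. Survival was recorded in each group, and the value is the treated-group measurement divided by that of the vehicle-treated control group.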

[1] = dose: 50.0 mg/kg/injection, schedule: Q01DX005 (ip), vehicle: Klucel (hydroxypropylcellulose) (HPC)
[2] = dose: 100.0 mg/kg/injection, schedule: Q01DX005 (ip), vehicle: Klucel (hydroxypropylcellulose) (HPC)
[3] = dose: 200.0 mg/kg/injection, schedule: Q01DX005 (ip), vehicle: Klucel (hydroxypropylcellulose) (HPC)
[4] = dose: 100.0 mg/kg/injection, schedule: Q01DX001 (ip), vehicle: saline with Tween-80
[5] = dose: 200.0 mg/kg/injection, schedule: Q01DX001 (ip), vehicle: saline with Tween-80
[6] = dose: 400.0 mg/kg/injection, schedule: Q01DX001 (ip), vehicle: saline with Tween-80
[7] = dose: 60.0 mg/kg/injection, schedule: Q01DX005 (ip), vehicle: saline with Tween-80
[8] = dose: 120.0 mg/kg/injection, schedule: Q01DX005 (ip), vehicle: saline with Tween-80
[9] = dose: 240.0 mg/kg/injection, schedule: Q01DX005 (ip), vehicle: saline with Tween-80

Measured: T/C

C(NC=C1c2ccccc2-c2ccccc21)=C1c2ccccc2-c2ccccc21
inactive: [1] 100 % of control | [2] 92 % of control | [3] 94 % of control

Nc1cc(=O)[nH]c(=S)n1-c1ccc(Br)cn1
inactive: [4] 90 % of control | [5] 100 % of control | [6] 90 % of control

CC1(C)CC(C)(OC(=O)c2ccc([N+](=O)[O-])cc2)[N+]([O-])=N1 (stereo not given)
inactive: dose: 12.5 mg/kg/injection, schedule: Q01DX009 (ip), vehicle: other 96 % of control | dose: 25.0 mg/kg/injection, schedule: Q01DX009 (ip), vehicle: other 100 % of control | dose: 50.0 mg/kg/injection, schedule: Q01DX009 (ip), vehicle: other 95 % of control | dose: 100.0 mg/kg/injection, schedule: Q01DX009 (ip), vehicle: other 94 % of control | dose: 200.0 mg/kg/injection, schedule: Q01DX009 (ip), vehicle: other 88 % of control

CC(C)c1cccc(C(C)C)c1NC(=O)N1CCCCC1
inactive: [7] 99 % of control | [8] 93 % of control | [9] 100 % of control

CC(C)(C)N=C(CCC(C#N)(C#N)CCC(=NC(C)(C)C)Nc1ccccc1C#N)Nc1ccccc1C#N
inactive: dose: 50.0 mg/kg/injection, schedule: Q01DX009 (ip), vehicle: saline with Tween-80 95 % of control | dose: 100.0 mg/kg/injection, schedule: Q01DX009 (ip), vehicle: saline with Tween-80 92 % of control | dose: 200.0 mg/kg/injection, schedule: Q01DX009 (ip), vehicle: saline with Tween-80 101 % of control

Cc1ccc(CNc2cccnc2)cc1
inactive: dose: 100.0 mg/kg/injection, schedule: Q04DX003 (ip), vehicle: saline with Tween-80 104 % of control | dose: 200.0 mg/kg/injection, schedule: Q04DX003 (ip), vehicle: saline with Tween-80 95 % of control | dose: 400.0 mg/kg/injection, schedule: Q04DX003 (ip), vehicle: saline with Tween-80 90 % of control

CCC(=O)NN(Cn1c(=S)sc2ccccc21)Cn1c(=S)sc2ccccc21
inactive: [1] 99 % of control | [2] 89 % of control | [3] 93 % of control

CC(=O)OC1COC(n2nnc3c(=O)[nH]cnc32)C(OC(C)=O)C1OC(C)=O (stereo not given)
inactive: [4] 103 % of control | [5] 103 % of control | [6] 103 % of control

CC12CCC(O1)C1C(=O)NC(=O)C12 (stereo not given)
inactive: dose: 50.0 mg/kg/injection, schedule: Q01DX005 (ip), vehicle: saline 102 % of control | dose: 100.0 mg/kg/injection, schedule: Q01DX005 (ip), vehicle: saline 108 % of control | dose: 200.0 mg/kg/injection, schedule: Q01DX005 (ip), vehicle: saline 100 % of control

COc1cc(C=NC2CCCCC2)cc(OC)c1OC
inactive: dose: 100.0 mg/kg/injection, schedule: Q01DX001 (ip), vehicle: saline 104 % of control | dose: 200.0 mg/kg/injection, schedule: Q01DX001 (ip), vehicle: saline 101 % of control | dose: 400.0 mg/kg/injection, schedule: Q01DX001 (ip), vehicle: saline 99 % of control

C1CCc2c(-c3n[nH]c4c3CCCC4)n[nH]c2C1
inactive: [7] 103 % of control | [8] 101 % of control | [9] 100 % of control

COC1=CC(=O)C(O)=C(CC2(C)C(C)CCC3(C)C2CCCC3(C)C)C1=O (stereo not given)
inactive: dose: 50.0 mg/kg/injection, schedule: Q01DX009 (ip), vehicle: Klucel (hydroxypropylcellulose) (HPC) 112 % of control | dose: 100.0 mg/kg/injection, schedule: Q01DX009 (ip), vehicle: Klucel (hydroxypropylcellulose) (HPC) 112 % of control

CC(=O)Nc1ccc2c(c1)Cc1cccc(NC(C)=O)c1-2
inactive: dose: 50.0 mg/kg/injection, schedule: Q01DX009 (ip), vehicle: saline 105 % of control | dose: 100.0 mg/kg/injection, schedule: Q01DX009 (ip), vehicle: saline 110 % of control | dose: 200.0 mg/kg/injection, schedule: Q01DX009 (ip), vehicle: saline 115 % of control

C=C(C)c1c(C)nc2c(N)nc(N)[n+]([O-])c2[n+]1[O-]
inactive: dose: 37.5 mg/kg/injection, schedule: Q01DX009 (ip), vehicle: saline 108 % of control | dose: 75.0 mg/kg/injection, schedule: Q01DX009 (ip), vehicle: saline 118 % of control | dose: 150.0 mg/kg/injection, schedule: Q01DX009 (ip), vehicle: saline 101 % of control

Cc1[nH]c(=O)cc2c1[nH]c1ccccc12
inactive: dose: 12.5 mg/kg/injection, schedule: Q01DX005 (ip), vehicle: Klucel (hydroxypropylcellulose) (HPC) 96 % of control | [1] 100 % of control | [2] 98 % of control

CC1=CC(=O)N2CC(=O)N(C)c3ccc(Cl)cc3C2(c2ccccc2)O1 (stereo not given)
inactive: [1] 104 % of control | [2] 92 % of control | [3] 92 % of control

CCC1CC(C)C(O)/C=C/C=C/CC(C)OC(=O)CC(O)C(OC)C1OC1OC(C)CC(O)(C(C)=O)C1O (stereo not given)
inactive: dose: 25.0 mg/kg/injection, schedule: Q01DX005 (ip), vehicle: Klucel (hydroxypropylcellulose) (HPC) 104 % of control | [1] 104 % of control | [2] 102 % of control | [3] 101 % of control

O=C1C=C(Nc2ncccn2)c2ccccc2C1=O
inactive: dose: 6.25 mg/kg/injection, schedule: Q01DX005 (ip), vehicle: Klucel + Tween-80 115 % of control | dose: 12.5 mg/kg/injection, schedule: Q01DX005 (ip), vehicle: Klucel + Tween-80 98 % of control | dose: 25.0 mg/kg/injection, schedule: Q01DX005 (ip), vehicle: Klucel + Tween-80 104 % of control

Cn1c(N)c(C(=S)N2CCOCC2)c(=O)n(C)c1=O
inactive: dose: 25.0 mg/kg/injection, schedule: Q04DX002 (ip), vehicle: saline with Tween-80 100 % of control | dose: 50.0 mg/kg/injection, schedule: Q04DX002 (ip), vehicle: saline with Tween-80 104 % of control | dose: 100.0 mg/kg/injection, schedule: Q04DX002 (ip), vehicle: saline with Tween-80 104 % of control

O=S(=O)(Nc1ccc(Br)c2ccccc12)c1ccccc1
inactive: dose: 18.75 mg/kg/injection, schedule: Q01DX001 (ip), vehicle: saline with Tween-80 95 % of control | dose: 37.5 mg/kg/injection, schedule: Q01DX001 (ip), vehicle: saline with Tween-80 95 % of control | dose: 75.0 mg/kg/injection, schedule: Q01DX001 (ip), vehicle: saline with Tween-80 95 % of control

Cc1[nH]n(-c2ccccc2)c(=O)c1N=Nc1cccc(C(F)(F)F)c1
inactive: dose: 100.0 mg/kg/injection, schedule: Q04DX002 (ip), vehicle: saline 92 % of control | dose: 200.0 mg/kg/injection, schedule: Q04DX002 (ip), vehicle: saline 99 % of control | dose: 400.0 mg/kg/injection, schedule: Q04DX002 (ip), vehicle: saline 100 % of control

O=NNc1ccc(-c2ccc(NN=O)cc2)cc1
inactive: dose: 3.12 mg/kg/injection, schedule: Q01DX009 (ip), vehicle: water 97 % of control | dose: 6.25 mg/kg/injection, schedule: Q01DX009 (ip), vehicle: water 95 % of control | dose: 12.5 mg/kg/injection, schedule: Q01DX009 (ip), vehicle: water 97 % of control | dose: 25.0 mg/kg/injection, schedule: Q01DX009 (ip), vehicle: water 100 % of control and 89 % of control | dose: 50.0 mg/kg/injection, schedule: Q01DX009 (ip), vehicle: water 89 % of control and 94 % of control | dose: 100.0 mg/kg/injection, schedule: Q01DX009 (ip), vehicle: water 88 % of control | dose: 200.0 mg/kg/injection, schedule: Q01DX009 (ip), vehicle: water 91 % of control

CN(C)c1ccc(P(=O)(O)O)c(Cl)c1
inactive: dose: 100.0 mg/kg/injection, schedule: Q01DX001 (ip), vehicle: Klucel (hydroxypropylcellulose) (HPC) 99 % of control | dose: 200.0 mg/kg/injection, schedule: Q01DX001 (ip), vehicle: Klucel (hydroxypropylcellulose) (HPC) 96 % of control | dose: 400.0 mg/kg/injection, schedule: Q01DX001 (ip), vehicle: Klucel (hydroxypropylcellulose) (HPC) 96 % of control
